# Patent US11529341B2, “Bicyclic compounds as inhibitors of PD1/PD-L1 interaction/activation” (JUBILANT PRODEL LLC, priority 2018, dated 2022)
# Molecular target: T1, PD-1/PD-L1 interaction (Homo sapiens, UniProt Q9NZQ7)
# T1 construct: Tag1 (undisclosed kit tag); purchased CisBio 63ADK000CPAPEG
# Test: PD-1/PD-L1 Homogenous Time-Resolved Fluorescence (HTRF) binding assay (CisBio kit)
# Conditions: Biochemical PD1/PD-L1 inhibition
# Experimental: PD-L1 Enzyme Assay: Homogenous Time-Resolved Fluorescence (HTRF) Binding Assay
# All binding studies were performed using PD-1/PD-L1 Binding Assay Kit from CisBio (Catalog #63ADK000CPAPEG), according to the manufacturer's protocol. The interaction between Tag1-PD-1 and […] was detected by anti-Tag1-Eu^3+ (HTRF donor) and anti-Tag2-XL665 (HTRF acceptor). When the donor and acceptor antibodies were brought to close proximity due to PD-1 and PD-L1 binding, excitation of the donor antibody triggered fluorescent resonance energy transfer (FRET) towards the acceptor antibody, which in turn emitted specifically at 665 nm. This specific signal is positively proportional to PD-1/PD-L1 interaction. The compounds blocking PD-1/PD-L1 interaction will cause a reduction in HTRF signal. The necessary reagents were mixed in the following order: 2 μl compounds (or diluents buffer), 4 μl PD-L1 protein, 4 μl PD-1 protein. After an incubation of 15 minutes, 5 μl of anti-Tag1-Eu^3+ and 5 μl of anti-Tag2-XL665 were added. The plate was sealed and incubated at room temperature for 1 h. The fluorescence emission was read at two different wavelengths (665 nm and 620 nm) on a BMG PheraStar® multi-plate reader. Results were calculated from the 665 nm and 620 nm fluorescence signal and expressed in HTRF ratio=(665 nm/620 nm)×10^4.
# T1 sequence (Q9NZQ7 19-238 limits assumed): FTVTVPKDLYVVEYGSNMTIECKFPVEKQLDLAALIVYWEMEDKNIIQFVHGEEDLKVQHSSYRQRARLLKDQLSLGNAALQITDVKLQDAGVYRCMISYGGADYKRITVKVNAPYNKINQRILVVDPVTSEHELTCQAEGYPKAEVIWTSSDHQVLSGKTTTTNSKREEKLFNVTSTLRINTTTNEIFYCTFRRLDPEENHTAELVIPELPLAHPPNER
row,SMILES,IC50 [nM]
1,"Cc1c(COc2ccc(CNC(C)CC(=O)O)c3c2CCC3)cccc1-c1ccccc1 (stereo not drawn) [Compound 23, 3-(((7-((2-methyl-[1,1′-biphenyl]-3-yl)methoxy)-2,3-dihydro-1H-inden-4-yl)methyl)amino)butanoic acid]",> 500
2,"Cc1c(COc2ccc(CNC(C)C(=O)O)c3c2CCC3)cccc1-c1ccccc1 (stereo not drawn) [Compound 24, ((7-((2-methyl-[1,1′-biphenyl]-3-yl)methoxy)-2,3-dihydro-1H-inden-4-yl)methyl)alanine]",> 500
3,"COc1cc(OCc2cccc(-c3ccccc3)c2C)c2c(c1CN1CCCC[C@H]1C(=O)O)CCC2 [Compound 26, (S)-1-((5-methoxy-7-((2-methyl-[1,1′-biphenyl]-3-yl)methoxy)-2,3-dihydro-1H-inden-4-yl)methyl)piperidine-2-carboxylic acid]",100 to 500
4,"Cc1c(COc2ccc(CN3CCCC[C@H]3C(=O)O)c3c2CCCC3)cccc1-c1ccccc1 [Compound 27, 1-((4-((2-methyl-[1,1′-biphenyl]-3-yl)methoxy)-5,6,7,8-tetrahydronaphthalen-1-yl)methyl)piperidine-2-carboxylic acid]",100 to 500
5,"CC(=O)NCCNCc1cc(C)c(OCc2cccc(-c3ccccc3)c2C)c2c1CCC2 [Compound 28, N-(2-(((6-methyl-7-((2-methyl-[1,1′-biphenyl]-3-yl)methoxy)-2,3-dihydro-1H-inden-4-yl)methyl)amino)ethyl)acetamide]",> 500
6,"Cc1cc(CN2C[C@H](O)C[C@H]2C(=O)O)c2c(c1OCc1cccc(-c3ccccc3)c1C)CCC2 [Compound 29, (2S,4R)-4-hydroxy-1-((6-methyl-7-((2-methyl-[1,1′-biphenyl]-3-yl)methoxy)-2,3-dihydro-1H-inden-4-yl)methyl)pyrrolidine-2-carboxylic acid]",100 to 500
7,"CC(=O)NCCNCc1cc(Cl)c(OCc2cccc(-c3ccccc3)c2C)c2c1CCC2 [Compound 30, N-(2-(((6-chloro-7-((2-methyl-[1,1′-biphenyl]-3-yl)methoxy)-2,3-dihydro-1H-inden-4-yl)methyl)amino)ethyl)acetamide]",100 to 500
8,"Cc1c(COc2c(Cl)cc(CN3C[C@H](O)C[C@H]3C(=O)O)c3c2CCC3)cccc1-c1ccccc1 [Compound 31, (2S,4R)-1-((6-chloro-7-((2-methyl-[1,1′-biphenyl]-3-yl)methoxy)-2,3-dihydro-1H-inden-4-yl)methyl)-4-hydroxypyrrolidine-2-carboxylic acid]",100 to 500
9,"COc1cc(OCc2cccc(-c3cccc(OCCCN4CCC(F)(F)C4)c3C)c2C)c2c(c1CNCCNC(C)=O)CCC2 [Compound 32, N-(2-(((7-((3′-(3-(3,3-difluoropyrrolidin-1-yl)propoxy)-2,2′-dimethyl-[1,1′-biphenyl]-3-yl)methoxy)-5-methoxy-2,3-dihydro-1H-inden-4-yl)methyl)amino)ethyl)acetamide]",100 to 500
10,"COc1cc(OCc2cccc(-c3cccc(OCCCN4CCC(F)(F)C4)c3C)c2C)c2c(c1CN1C[C@H](O)C[C@H]1C(=O)O)CCC2 [Compound 33, (2S,4R)-1-((7-((3′-(3-(3,3-difluoropyrrolidin-1-yl)propoxy)-2,2′-dimethyl-[1,1′-biphenyl]-3-yl)methoxy)-5-methoxy-2,3-dihydro-1H-inden-4-yl)methyl)-4-hydroxypyrrolidine-2-carboxylic acid]",> 500
11,"Cc1c(COc2cc(OCc3cccc(C#N)c3)c(CN3CC4(COC4)C3)c3c2CCC3)cccc1-c1ccccc1 [Compound 39, 3-(((4-((2-oxa-6-azaspiro[3.3]heptan-6-yl)methyl)-7-((2-methyl-[1,1′-biphenyl]-3-yl)methoxy)-2,3-dihydro-1H-inden-5-yl)oxy)methyl)benzonitrile]",100 to 500

# Next, values leading:
row,IC50 [nM],SMILES
1,100 to 500,"Cc1c(COc2ccc(CN(C)CC(=O)O)c3c2CCC3)cccc1-c1ccccc1 [Compound 22, N-methyl-N-((7-((2-methyl-[1,1′-biphenyl]-3-yl)methoxy)-2,3-dihydro-1H-inden-4-yl)methyl)glycine]"
2,< 100,"COc1cc(OCc2cccc(-c3ccccc3)c2C)c2c(c1CN1C[C@H](O)C[C@H]1C(=O)O)CCC2 [Compound 25, (2S,4R)-4-hydroxy-1-((5-methoxy-7-((2-methyl-[1,1′-biphenyl]-3-yl)methoxy)-2,3-dihydro-1H-inden-4-yl)methyl)pyrrolidine-2-carboxylic acid]"
3,< 100,"CC(=O)NCCNCc1c(OCc2cccc(C#N)c2)cc(OCc2cccc(-c3ccccc3)c2C)c2c1CCC2 [Compound 34, N-(2-(((5-((3-cyanobenzyl)oxy)-7-((2-methyl-[1,1′-biphenyl]-3-yl)methoxy)-2,3-dihydro-1H-inden-4-yl)methyl)amino)ethyl)acetamide]"
4,< 100,"Cc1c(COc2cc(OCc3cccc(C#N)c3)c(CN3C[C@H](O)C[C@H]3C(=O)O)c3c2CCC3)cccc1-c1ccccc1 [Compound 35, (2S,4R)-1-((5-((3-cyanobenzyl)oxy)-7-((2-methyl-[1,1′-biphenyl]-3-yl)methoxy)-2,3-dihydro-1H-inden-4-yl)methyl)-4-hydroxypyrrolidine-2-carboxylic acid]"
5,< 100,"Cc1c(COc2cc(OCc3cccc(C#N)c3)c(CN3CCCC[C@H]3C(N)=O)c3c2CCC3)cccc1-c1ccccc1 [Compound 37, (S)-1-((5-((3-cyanobenzyl)oxy)-7-((2-methyl-[1,1′-biphenyl]-3-yl)methoxy)-2,3-dihydro-1H-inden-4-yl)methyl)piperidine-2-carboxamide]"
6,< 100,"Cc1c(COc2cc(OCc3cccc(C#N)c3)c(CNC(CO)(CO)CO)c3c2CCC3)cccc1-c1ccccc1 [Compound 38, 3-(((4-(((1,3-dihydroxy-2-(hydroxymethyl)propan-2-yl)amino)methyl)-7-((2-methyl-[1,1′-biphenyl]-3-yl)methoxy)-2,3-dihydro-1H-inden-5-yl)oxy)methyl)benzonitrile]"
7,< 100,"Cc1c(COc2cc(OCc3cccc(C#N)c3)c(CN3CCCC(O)C3)c3c2CCC3)cccc1-c1ccccc1 (stereo not drawn) [Compound 40, 3-(((4-((3-hydroxypiperidin-1-yl)methyl)-7-((2-methyl-[1,1′-biphenyl]-3-yl)methoxy)-2,3-dihydro-1H-inden-5-yl)oxy)methyl)benzonitrile]"
8,< 100,"Cc1c(COc2cc(OCc3cccc(C#N)c3)c(CNCC(=O)O)c3c2CCC3)cccc1-c1ccccc1 [Compound 41, ((5-((3-cyanobenzyl)oxy)-7-((2-methyl-[1,1′-biphenyl]-3-yl)methoxy)-2,3-dihydro-1H-inden-4-yl)methyl)glycine]"
9,< 100,"Cc1c(COc2cc(OCc3cccc(C#N)c3)c(CN3CC4(CC4)C[C@H]3C(=O)O)c3c2CCC3)cccc1-c1ccccc1 [Compound 42, (S)-5-((5-((3-cyanobenzyl)oxy)-7-((2-methyl-[1,1′-biphenyl]-3-yl)methoxy)-2,3-dihydro-1H-inden-4-yl)methyl)-5-azaspiro[2.4]heptane-6-carboxylic acid]"
10,< 100,"Cc1c(COc2cc(OCc3cccc(C#N)c3)c(CNCCCC(=O)O)c3c2CCC3)cccc1-c1ccccc1 [Compound 44, 4-(((5-((3-cyanobenzyl)oxy)-7-((2-methyl-[1,1′-biphenyl]-3-yl)methoxy)-2,3-dihydro-1H-inden-4-yl)methyl)amino)butanoic acid]"
